According to EPA's ToxValDB 9.5 (doi:10.2903/j.efsa.2010.1558):
≈ marks a conversion by molar mass, not a printed value.

Legend:
Tagia sp. = details: acute; duration: 14 days; mortality
Apis mellifera = details: acute, duration: 48 hours, mortality
Daphnia magna = details: chronic/long-term; duration: 21 days; mobility
Rattus norvegicus = details: for NOAEL: reproduction developmental
Pimephales promelas = details: chronic/long-term; duration: 33 days; growth
Colinus virginianus = details: oral
Lepomis macrochirus = details: acute; duration: 96 hours; mortality
Typhlodromus pyri = details: acute; duration: 14 days; reproduction
Anas platyrhynchos = details: reproductive
Canidae = details: chronic; duration: 1 years; oral; Dog Other; body weight

SMILES: N#CC(CCc1ccc(Cl)cc1)(Cn1cncn1)c1ccccc1 (centres undefined)
- LC50 (Tagia sp.): > 100 mg/kg
- LD50 (Apis mellifera; dermal): > 5.5 µg/piece
- LD50 (Apis mellifera; oral, unspecified): > 5.2 µg/piece
- NOEC (Daphnia magna): 0.078 mg/L
- LD50 (Rattus norvegicus; acute, oral, mortality): > 5000 mg/kg-day
- NOAEL (Rattus norvegicus; body weight): 30 mg/kg-day
- NOAEL (Rattus norvegicus; reproduction): 5 mg/kg-day
- NOEC (Pimephales promelas): 0.023 mg/L
- LD50 (Colinus virginianus; acute, mortality): > 2150 mg/kg-day
- NOEL (Colinus virginianus; short-term, diet, food consumption): 111 mg/kg-day
- LC50 (Lepomis macrochirus): 0.68 mg/L (≈ 2.02 µM)
- LEL (Typhlodromus pyri): 63 g/ha
- NOEC (Anas platyrhynchos): 21 mg/kg-day
- NOAEL (Canidae): 0.62 mg/kg-day
